The subject of assay [1] is Hsp90 (SKBr3 lysate). The assay can be described thus: Hsp90 binding assay (fluorescence polarization, cy3B-GM displacement), human cancer cell lysate. As to conditions: lysate not given. On the procedure: (§1) For the binding studies, fluorescence polarization (FP) assays w-re performed similarly as was previously reported [Du et al. (2007) “High-throughput screening fluorescence polarization assay for tumor-specific Hsp90” J. Biomol. Screen 12:915-924]. Briefly, FP measurements were performed on an Analyst GT instrument (Molecular Devices, Sunnyvale, Calif.). Measurements were taken in black 96-well microtiter plates (Corning #3650) where both the excitation and the emission occurred from the top of the well. A stock of 10 μM cy3B-GM was prepared in DMSO and diluted with HFB buffer (20 mM Hepes (K), pH 7.3, 50 mM KCl, 2 mM DTT, 5 mM MgCl2, 20 mM Na2MoO4, and 0.01% NP40 with 0.1 mg/mL BGG). The test compounds were dissolved in DMSO and added at several concentrations to the HFB assay buffer containing both 6 nM cy3B-GM and transgenic mouse brain lysate (6 μg JNPL3 lysate) or human cancer cell lysate (3 μg SKBr3 lysate) in a final volume of 100 μL. Drugs were added to triplicate wells. Free cy3B-GM (6 nM cy3B-GM), bound cy3B-GM (6 nM cy3B-GM+lysate, as indicated above) and buffer only containing wells (background) were included as controls in each plate. Plates were incubated on a shake at 4° C., and polarization values measured at 24 h. Percentage inhibition was calculated as follows: (% Control)=100−((mPc−mPf)/(mPb−mPf))×100, where mPc is the recorded mP from compound wells, mPf is the average recorded mP from cy3B-GM-only wells, and mPb is the average recorded mP from wells containing both cy3B-GM and lysate, and plotted against values of competitor concentrations. The inhibitor concentration at which 50% of bound cy3B-GM was displaced was obtained by fitting the data using a nonlinear regression analysis as implemented in Prism 4.0 (GraphPad Software).

Assay [2] has as its system Hsp90. The assay is described as above. As to conditions: fluorescence polarization, cy3B-GM displacement; the table does not say which lysate (SKBr3 or JNPL3). On the procedure: as §1
On the technique in general: In fluorescence polarisation assays a small probe gives low polarisation when free and higher when bound to something large.

The results in this text go back to US9926321B2, “Hsp90 inhibitors” (Sloan-Kettering Institute for Cancer Research, priority 2011, dated 2018).

In general, IC50 refers to the concentration that inhibits the measured activity by half. Lower therefore signals higher potency.

For `CN(C)c1cc2c(cc1Sc1nc3c(N)ncnc3n1CCCNS(=O)(=O)C1CC1)OCO2` [Compound 1G-28, N-(3-(6-amino-8-((6-(dimethylamino)benzo[d] [1,3]dioxol-5-yl)thio)-9H-purin-9-yl)propyl)cyclopropane-sulfonamide], the “Hsp90 binding affinity (in words, referring to Table 12)” value (“Hsp90 binding affinity” for short) in assay [1] was “high level of binding affinity”. In assay [2], the IC50 turned out to be 22 nM.

Take `CC(C)(C)[S+]([O-])NCCn1c(Cc2cc3c(cc2I)OCO3)nc2c(N)nc(F)nc21` (stereo not drawn) [Compound 4A-12, N-(2-(6-amino-2-fluoro-8-((6-iodobenzo[d][1,3]dioxol-5-yl)methyl)-9H-purin-9-yl)ethyl)-2-methylpropane-2-sulfinamide]: the IC50 in assay [2] is 29.6 nM.

Regarding `CC(C)(C)[S+]([O-])NCCCn1c(Sc2cc3c(cc2I)CCO3)nc2c(N)ncnc21` (stereo not drawn) [Compound 2A-26, 2-Methyl-propane-2-sulfinic acid {3-[6-amino-8-(5-iodo-2,3-dihydro-benzofuran-6-ylsulfanyl)-purin-9-yl]-propyl}-amide], the “Hsp90 binding affinity” value in assay [1] is “high level of binding affinity”. The compound further returned a half-inhibitory concentration (IC50) in assay [2] of 17 nM.

The compound `CC(C)(C)S(=O)(=O)NCCCn1c(Sc2cc3c(cc2I)OCO3)nc2c(N)ncnc21` [Compound 1A-25, 2-Methyl-propane-2-sulfonic acid {3-[6-amino-8-(6-iodo-benzo[1,3]dioxol-5-ylsulfanyl)-purin-9-yl]-propyl}-amide] gave an IC50 in assay [2] of 24 nM.

In the case of `COc1ccc(I)c(Sc2nc3c(N)ncnc3n2CCCNC(=O)C(C)(C)C)c1` [Compound 1A-49, N-(3-(6-amino-8-((2-iodo-5-methoxyphenyl)thio)-9H-purin-9-yl)propyl)pivalamide], in assay [2], the IC50 is 28.3 nM. The IC50 values of the last two compounds are within 1.5-fold of each other.

Turning to `CC(C)(C)[S+]([O-])NCCn1c(Sc2cc3c(cc2I)CCC3)nc2c(N)ncnc21` (stereo not drawn) [Compound 3A-12, 2-Methyl-propane-2-sulfinic acid {2-[6-amino-8-(6-iodo-indan-5-ylsulfanyl)-purin-9-yl]-ethyl}-amide], the “Hsp90 binding affinity” value in assay [1] is listed as “high level of binding affinity”.

On to `CS(=O)(=O)NCCCn1c(Sc2cc3c(cc2I)OCO3)nc2c(N)ncnc21` [Compound 1A-24, N-{3-[6-Amino-8-(6-iodo-benzo[1,3]dioxol-5-ylsulfanyl)-purin-9-yl]-propyl}-methanesulfonamide], for which the “Hsp90 binding affinity” value in assay [1] is on record as “high level of binding affinity”. For the same compound, the IC50 in assay [2] is 11.5 nM.

In turn, `CC(=O)OC(C)(C)C(=O)NCCCn1c(Sc2cc3c(cc2I)OCO3)nc2c(N)ncnc21` [Compound 1A-47, 1-((3-(6-Amino-8-((6-iodobenzo[d][1,3]dioxol-5-yl)thio)-9H-purin-9-yl)propyl)amino)-2-methyl-1-oxopropan-2-yl acetate] showed an IC50 in assay [2] of 16.5 nM. This counts as double-digit nanomolar.

Compound `CC(C)CS(=O)(=O)NCCCn1c(Sc2cc3c(cc2I)OCO3)nc2c(N)ncnc21` [Compound 1A-27, 2-Methyl-propane-1-sulfonic acid {3-[6-amino-8-(6-iodo-benzo[1,3]dioxol-5-ylsulfanyl)-purin-9-yl]-propyl}-amide] returned an IC50 in assay [2] of 64 nM.

For `NC(=O)CCCCCn1c(Sc2cc3c(cc2I)OCO3)nc2c(N)ncnc21` [Compound 1A-50, 6-(6-amino-8-((6-iodobenzo[d][1,3]dioxol-5-yl)thio)-9H-purin-9-yl)hexanamide], the half-maximal inhibitory concentration (IC50) in assay [2] was 76.5 nM. The IC50 values of the last two compounds are within 1.5-fold of each other.

As to `CC(C)C(=O)NCCCn1c(Sc2cc3c(cc2I)OCO3)nc2c(N)ncnc21` [Compound 1A-44, N-(3-(6-Amino-8-((6-iodobenzo[d][1,3]dioxol-5-yl)thio)-9H-purin-9-yl)propyl)isobutyramide], the IC50 in assay [2] stood at 68 nM.

Regarding `Nc1ncnc2c1nc(Sc1cc3c(cc1I)OCO3)n2CCCNS(=O)(=O)C1CC1` [Compound 1A-28, Cyclopropanesulfonic acid {3-[6-amino-8-(6-iodo-benzo[1,3]dioxol-5-ylsulfanyl)-purin-9-yl]-propyl}-amide], the IC50 in assay [2] turned out to be 19.7 nM.
